# Test results reported in patent US8283358B2, “N-sulfonamido polycyclic pyrazolyl compounds” (Elan Pharmaceuticals, Inc., priority 2008, dated 2012).
# Where two headings read alike, the source gives them in different places.
# Experiments:
# [1] = test system: gamma secretase in CHO cells expressing APPSwe, NotchΔE and a Notch responsive luciferase reporter gene (SNC-204B8); assay: SNC dual cell assay for simultaneous assay of A-beta reduction and Notch signaling (Example D); details: ratio of Notch IC50/Aβ EC50 determined as described in Example D (SNC dual cell assay)
# From the text: In order to facilitate testing the potency of gamma-secretase inhibitors on two substrates (APP and Notch) simultaneously, a dual-assay using a CHO cell line stably expressing APPSwe, a Notch substrate lacking the ecto-domain, and a Notch responsive Luciferase reporter gene was developed. CHOSwe cells stably over-express the Swedish FAD isoform of APP, and secrete large amounts of Aβ peptide into the conditioned media from endogenous β- and γ-secretase enzyme activity. A Notch intracellular domain (NICD) responsive reporter gene, and the constitutive gamma-secretase Notch substrate, NotchΔE, were stably introduced into CHOSwe cells in a two step process. CHOSwe cells were first stably transfected to express a NICD responsive luciferase reporter gene construct (pGL2-CBF-Luc). […] Stable cell lines expressing rat NotchΔE were then identified in the second step by including a gamma-secretase inhibitor in the selection process (to suppress Notch/NICD toxicity) following transfection of the rat Notch-ΔE construct. […] This vector drives expression of a truncated rat Notch construct corresponding to the c-terminal product following ecto-domain shedding of full length rat Notch protein. The c-terminal product is a constitutive substrate for gamma-secretase cleavage, resulting in release of the cytoplasmic Notch intracellular domain (NICD) product, which translocates to the nucleus and relieves CBF repressed genes. Subsequently, pIRES-ZEDN transfected cells were re-plated at low density in the presence of test compound, and selected with three antibiotics (G418 (0.5 mg/ml)/Hygro (1 mg/ml)/Puro (2.5 mg/ml)). The antibiotic-resistant colonies (named SNC clones for the dual-assay components: APPSwe/NotchΔE/CBF) were isolated and expanded for characterization of Aβ secretion, and NICD responsive reporter gene activity (i.e. luciferase signal in the presence versus absence of test compound). […] A typical dual-assay experiment was performed as follows: Day 1, the SNC cells were plated in 96-well assay plates in inhibitor-free media. Day 2, the cells were fed with fresh media (inhibitor free) and treated with test compounds over a concentration range 0 nM to 40,000 nM (in 10× incremental dilutions) one hour after the media change. The cells were treated with compounds overnight at 37° C. […] For the Notch signaling assay, the cells were lysed and luciferase activity from the lysate was measured using the Promega kit (see below). Day 4, Aβ-ELISA part II was conducted using 3D6-biotin/AP-streptavidin antibodies.
# [2] = molecular target: T1, gamma-secretase (partially purified extract of IMR-32 cell membranes; substrate MBP-C125 Swe fusion protein, cleavage at the Aβ40 site) (Homo sapiens, UniProt P49768); assay: Gamma-secretase APP enzyme assay (Example A); format: biochemical; details: assay described in Example A
# T1 construct: a partially purified extract of IMR-32 cell membranes as the gamma-secretase enzyme preparation; endogenous in cells; host or cells: IMR-32 cell membranes, partially purified extract
# Summary of the method: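 IMR-32 membrane extract, solubilised in BigCHAPS with brain lipid (0.53 mg/ml) in Hepes/NaCl, preincubated 30 min at 37° C with inhibitor; MBP-C125 Swe substrate then added, 2 h at 37° C, SDS-quenched. Aβ40 neo-epitope product measured by sandwich ELISA against six-point standard curve.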
# [3] = class symbols, read-out: γAPP IC50
# [4] = numeric bounds given instead of class symbols, read-out: γAPP IC50
"IC50 [2, 3] [nM]",SMILES,further results
< 100,"O=S(=O)(c1ccc(C(F)(F)F)nc1)N1C2Cc3[nH]ncc3C1c1cc(C3CC3)ccc12 (single isomer, unassigned) [compound 247]",
< 100,O=S(=O)(c1ccc(Cl)cc1)N1C2Cc3[nH]ncc3C1c1c(F)cccc12 (racemic) [compound 209],
< 100,O=S(=O)(c1ccc(C(F)(F)F)cc1)N1C2c3ccccc3C1C(F)(F)c1[nH]ncc12 (racemic) [compound 74],
> 1000,Cc1noc(-c2ccc3c(c2)C2c4cn[nH]c4CC3N2S(=O)(=O)c2ccc(C(F)(F)F)nc2)n1 (stereo not drawn) [compound 201],
< 100,O=C1c2[nH]ncc2C2c3ccccc3C1N2S(=O)(=O)c1ccc(C(F)(F)F)cc1 (stereo not drawn) [compound 71],
< 100,O=S(=O)(c1ccc(C(F)(F)F)nc1)N1C2c3cn[nH]c3[C@@H](O)C1c1cccc(F)c12 (stereo partly drawn) [compound 238],
> 1000,O=S(=O)(c1ccc(C(F)(F)F)nc1)N1[C@@H]2c3cn[nH]c3[C@H](F)[C@H]1c1cccc(F)c12 [compound 268],
100 to 499,CC(=O)c1ccc(C2CC3Cc4[nH]ncc4C(C2)N3S(=O)(=O)c2ccc(C(F)(F)F)cc2)cc1 (racemic) [compound 154],
< 100,O=S(=O)(c1ccc(C(F)(F)F)nc1)N1C2c3ccccc3C1[C@@H](F)c1n[nH]cc12 (stereo partly drawn) [compound 206],
< 100,O=C(O)COCCNc1ccc(C2CC3Cc4[nH]ncc4C(C2)N3S(=O)(=O)c2ccc(C(F)(F)F)cc2)cc1 (racemic) [compound 145],
< 100,"N#Cc1ccc2c(c1)C1Cc3n[nH]cc3C2N1S(=O)(=O)c1ccc(C(F)(F)F)nc1 (single isomer, unassigned) [compound 174]",
< 100,"O=S(=O)(c1ccc(Cl)cc1)N1C2Cc3[nH]ncc3C1c1c(F)cccc12 (single isomer, unassigned) [compound 231]",
100 to 499,COC(=O)c1ccc2c(c1)C1c3cn[nH]c3CC2N1S(=O)(=O)c1ccc(C(F)(F)F)nc1 (stereo not drawn) [compound 205],
< 100,O=S(=O)(c1ccc(C(F)(F)F)cc1)N1C2c3cc(F)c(F)cc3C1C(F)(F)c1n[nH]cc12 (stereo not drawn) [compound 77],
100 to 499,O=S(=O)(c1ccc(C(F)(F)F)nc1)N1C2Cc3[nH]ncc3C1c1nc(C3CC3)ccc12 (stereo not drawn) [compound 255],

# The remaining lines, values behind:
SMILES,"IC50 [2, 3] [nM]",further results
"Cc1noc(C2CC3Cc4[nH]ncc4C(C2)N3S(=O)(=O)c2ccc(Cl)cc2)n1 (racemic) [(±)-10-[(4-chlorophenyl)sulfonyl]-6-(3-methyl-1,2,4-oxadiazol-5-yl)-4,5,6,7,8,9-hexahydro-1H-4,8-epiminocycloocta[c]pyrazole]",,Selectivity Ratio (Notch IC50/Aβ ED50) [1]: (++++) ((++++) means a ratio of Notch IC50/Aβ EC50 (determined as described in Example D) of >200)
"O=S(=O)(c1ccc(C(F)(F)F)cc1)N1C2Cc3[nH]ncc3C1CC(c1csnn1)C2 (racemic) [(±)-6-(1,2,3-thiadiazol-4-yl)-10-{[4-(trifluoromethyl)phenyl]sulfonyl}-4,5,6,7,8,9-hexahydro-1H-4,8-epiminocycloocta[c]pyrazole]",,Selectivity Ratio (Notch IC50/Aβ ED50) [1]: (^++)
"O=S(=O)(c1ccc(C(F)(F)F)nc1)N1C2Cc3[nH]ncc3C1CC(c1ccc(F)cc1)C2 (racemic) [(±)-endo-6-(4-fluorophenyl)-10-{[6-(trifluoromethyl)pyridin-] [(±)-endo-6-(4-fluorophenyl)-10-{[6-(trifluoromethyl)pyridin-3-yl]sulfonyl}-4,5,6,7,8,9-hexahydro-1H-4,8-epiminocycloocta[c]pyrazole]",,Selectivity Ratio (Notch IC50/Aβ ED50) [1]: (++) ((++) means a ratio from about 100 to about 149)
"Cc1cc(C2CC3Cc4[nH]ncc4C(C2)N3S(=O)(=O)c2ccc(Cl)cc2)on1 (racemic) [(±)-10-[(4-chlorophenyl)sulfonyl]-6-(3-methylisoxazol-5-yl)-4,5,6,7,8,9-hexahydro-1H-4,8-epiminocycloocta[c]pyrazole]",,Selectivity Ratio (Notch IC50/Aβ ED50) [1]: (++++) ((++++) means a ratio of Notch IC50/Aβ EC50 (determined as described in Example D) of >200)
"O=S(=O)(c1ccc(C(F)(F)F)nc1)N1C2Cc3[nH]ncc3C1c1cc(Br)ccc12 (single isomer, unassigned; (-)) [(−)-6-bromo-11-{[6-(trifluoromethyl)pyridin-3-yl]sulfonyl}-1,4,9,10-tetrahydro-4,9-epiminobenzo[4,5]cyclohepta[1,2-c]pyrazole]",,Selectivity Ratio (Notch IC50/Aβ ED50) [1]: (+) ((+) means a ratio from about 50 to about 99)
"O=S(=O)(c1ccc(C(F)(F)F)cc1)N1C2c3ccccc3C1C(O)c1[nH]ncc12 (single isomer, unassigned; (+)) [(+)-endo-11-{[4-(trifloromethyl)phenyl]sulfonyl}-1,4,9,10-tetrahydro-4,9-epiminobenzo[4,5]cyclohepta[1,2-c]pyrazol-10-ol]",,Selectivity Ratio (Notch IC50/Aβ ED50) [1]: (+++) ((+++) means a ratio from about 150 to about 199)
"O=S(=O)(c1ccc(C(F)(F)F)cc1)N1C2Cc3[nH]ncc3C1c1cccc(-c3cccc(C(F)(F)F)c3)c1C2 (racemic) [(±)-7-[3-(trifluoromethyl)phenyl]-12-{[4-(trifluoromethyl)phenyl]sulfonyl}-4,5,6,11-tetrahydro-3H-5,11-epiminobenzo[4,5]cycloocta[1,2-c]pyrazole]",,Selectivity Ratio (Notch IC50/Aβ ED50) [1]: (++) ((++) means a ratio from about 100 to about 149)
"O=S(=O)(c1ccc(C(F)(F)F)cc1)N1C2Cc3[nH]ncc3C1CC(c1cccc(Br)c1)C2 (racemic) [(±)-6-(3-bromophenyl)-10-{[4-(trifluoromethyl)phenyl]sulfonyl}-4,5,6,7,8,9-hexahydro-1H-4,8-epiminocycloocta[c]pyrazole]",,Selectivity Ratio (Notch IC50/Aβ ED50) [1]: (+) ((+) means a ratio from about 50 to about 99)
"O=C1c2[nH]ncc2C2c3cccc(F)c3C1N2S(=O)(=O)c1ccc(C(F)(F)F)nc1 (single isomer, unassigned; (-)) [(−)-8-fluoro-11-{[6-(trifluoromethyl)pyridin-3-yl]sulfonyl}-4,9-dihydro-4,9-epiminobenzo[4,5]cyclohepta[1,2-c]pyrazol-10(1H)-one]",,Selectivity Ratio (Notch IC50/Aβ ED50) [1]: (++++) ((++++) means a ratio of Notch IC50/Aβ EC50 (determined as described in Example D) of >200)
"O=S(=O)(c1ccc(C(F)(F)F)nc1)N1C2Cc3[nH]ncc3C1CC(c1ccc(F)cc1)C2 (racemic) [(±)-exo-6-(4-fluorophenyl)-10-{[6-(trifluoromethyl)pyridin-3] [(±)-exo-6-(4-fluorophenyl)-10-{[6-(trifluoromethyl)pyridin-3-yl]sulfonyl}-4,5,6,7,8,9-hexahydro-1H-4,8-epiminocycloocta[c]pyrazole]",,Selectivity Ratio (Notch IC50/Aβ ED50) [1]: (+++) ((+++) means a ratio from about 150 to about 199)
O=S(=O)(c1ccc(C(F)(F)F)cc1)N1C2c3c[nH]nc3C(F)(F)C1c1cccc(F)c12 (stereo not drawn) [compound 127],< 100,
"O=S(=O)(c1ccc(C(F)(F)F)nc1)N1C2Cc3n[nH]cc3C1c1cc(F)c(F)cc12 (single isomer, unassigned) [compound 111]",< 100,
CC12C(=O)c3[nH]ncc3C(c3ccccc31)N2S(=O)(=O)c1ccc(C(F)(F)F)nc1 (stereo not drawn) [compound 276],,"IC50 [2, 4]: > 30 nM"
O=S(=O)(c1ccc(C(F)(F)F)nc1)N1C2Cc3c(C4CC4)cccc3C1Cc1n[nH]cc12 (stereo not drawn) [compound 135],< 100,
"O=S(=O)(c1ccc(C(F)(F)F)nc1)N1C2Cc3n[nH]cc3C1c1nc(Br)ccc12 (single isomer, unassigned) [compound 248]",< 100,
O=S(=O)(c1ccc(C(F)(F)F)cc1)N1C2Cc3[nH]ncc3C1C(c1ccc(F)cc1)C2 (stereo not drawn) [compound 61],< 100,
O=C1COCCN1c1ccc(C2CC3Cc4[nH]ncc4C(C2)N3S(=O)(=O)c2ccc(C(F)(F)F)cc2)cc1 (racemic) [compound 143],500 to 999,
"O=C1c2[nH]ncc2C2c3cccc(F)c3C1N2S(=O)(=O)c1ccc(C(F)(F)F)nc1 (single isomer, unassigned) [compound 192]",< 100,
O=S(=O)(c1ccc(C(F)(F)F)nc1)N1C2c3c[nH]nc3[C@@H](O)C1c1c(F)cccc12 (stereo partly drawn) [compound 240],100 to 499,
"O=S(=O)(c1ccc(C(F)(F)F)cc1)N1C2Cc3n[nH]cc3C1c1c(F)cccc12 (single isomer, unassigned) [compound 115]",,"IC50 ([2]; γAPP IC50 (nM), class symbols): < 100 nM"
O=S(=O)(c1ccc(C(F)(F)F)cc1)N1C2Cc3[nH]ncc3C1c1cccnc12 (stereo not drawn) [compound 100],< 100,
O=S(=O)(c1ccc(C(F)(F)F)nc1)N1C2Cc3n[nH]cc3C1c1cccc(CO)c12 (stereo not drawn) [compound 252],< 100,
O=S(=O)(c1ccc(C(F)(F)F)cc1)N1C2Cc3[nH]ncc3C1CC(c1ccc(-n3cccn3)cc1)C2 (stereo not drawn) [compound 124],< 100,
O=S(=O)(c1ccc(C(F)(F)F)nc1)N1C2Cc3[nH]ncc3C1c1c(C3CC3)cccc12 (racemic) [compound 274],< 100,
"O=S(=O)(c1ccc(C(F)(F)F)nc1)N1C2Cc3n[nH]cc3C1c1nc(Br)ccc12 (single isomer, unassigned) [compound 249]",> 1000,
CC#Cc1ccc2c(c1)[C@@H]1c3cn[nH]c3C[C@@H]2N1S(=O)(=O)c1ccc(C(F)(F)F)nc1 [compound 261],100 to 499,
O=C1c2n[nH]cc2C2c3c(F)cccc3C1N2S(=O)(=O)c1ccc(C(F)(F)F)cc1 (stereo not drawn) [compound 103],< 100,
O=S(=O)(c1ccc(C(F)(F)F)nc1)N1C2Cc3[nH]ncc3C1c1ccccc12 (stereo not drawn) [compound 196],,"IC50 [2, 4]: > 30 nM"
O=S(=O)(c1ccc(C(F)(F)F)nc1)N1C2c3c[nH]nc3[C@H](O)C1c1cccc(F)c12 (stereo partly drawn) [compound 237],> 1000,
O=S(=O)(c1ccc(C(F)(F)F)cc1)N1C2Cc3[nH]ncc3C1CC(c1nnn[nH]1)C2 (racemic) [compound 126],> 1000,
